# Measurements from US20240092784A1, “CONDENSED HETEROCYCLIC COMPOUND” (NISSAN CHEMICAL CORPORATION, priority 2020, published 2024).
# Structures can show the parent of a compound that is named as a salt.
# Target: human SPR (Homo sapiens (Human), UniProt P35270)
# Experiment: Evaluation Example 2: Measurement of human SPR inhibitory activity (seven concentrations, sepiapterin absorbance at 420 nm)
# Format: biochemical
# Settings: Evaluation Example 2, seven concentrations 0.14 nM to 100 nM, 240 minutes at room temperature, read-out: IC50
# Method in brief: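 Reactions ran 240 min at room temperature in 100 mM Tris-HCl pH 7.5 with 0.01% BSA. They contained tag-cleaved, E. coli-expressed full-length human SPR (diluted to 150 ng/mL), seven compound concentrations from 0.14 to 100 nM, and sepiapterin/NADPH added as a 120 μM/160 μM solution. Inhibition was calculated from sepiapterin absorbance at 420 nm.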
# Sequence of human SPR (P35270 whole entry): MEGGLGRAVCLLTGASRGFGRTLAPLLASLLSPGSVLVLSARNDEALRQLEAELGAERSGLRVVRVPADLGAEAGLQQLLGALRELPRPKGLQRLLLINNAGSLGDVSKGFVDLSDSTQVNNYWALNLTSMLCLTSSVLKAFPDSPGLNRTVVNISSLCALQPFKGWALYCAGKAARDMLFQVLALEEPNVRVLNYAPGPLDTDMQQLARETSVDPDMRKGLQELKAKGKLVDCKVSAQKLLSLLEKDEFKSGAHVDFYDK
row,SMILES,IC50 [nM]
1,"CC(C)Cn1c(=O)c(C(=O)NC2CC2)c(O)n2ncc(/C=C/C(=O)N(C)CC3CCOCC3)c12 [compound 499, (E)-N-Cyclopropyl-7-hydroxy-4-isobutyl-3-(3-(methyl((tetrahydro-2H-pyran-4-yl)methyl)amino)-3-oxoprop-1-en-1-yl)-5-oxo-4,5-dihydropyrazolo[1,5-a]pyrimidine-6-carboxamide]",0.74
2,"CC(C)Cn1c(=O)c(C(=O)NC2CC2)c(O)n2ncc(/C=C/C(=O)N3CC[C@H](O)C3)c12 [compound 501, (S,E)-N-Cyclopropyl-7-hydroxy-3-(3-(3-hydroxypyrrolidin-1-yl)-3-oxoprop-1-en-1-yl)-4-isobutyl-5-oxo-4,5-dihydropyrazolo[1,5-a]pyrimidine-6-carboxamide]",0.71
3,"CC(C)Cn1c(=O)c(C(=O)NC2CC2)c(O)n2ncc(/C=C/C(=O)N3CC[C@@H](O)C3)c12 [compound 502, (R,E)-N-Cyclopropyl-7-hydroxy-3-(3-(3-hydroxypyrrolidin-1-yl)-3-oxoprop-1-en-1-yl)-4-isobutyl-5-oxo-4,5-dihydropyrazolo[1,5-a]pyrimidine-6-carboxamide]",0.7
4,"CC(C)Cn1c(=O)c(C(=O)NC2CC2)c(O)n2ncc(/C=C/C(=O)N(C)C(C)C)c12 [compound 503, (E)-N-Cyclopropyl-7-hydroxy-4-isobutyl-3-(3-(isopropyl(methyl)amino)-3-oxoprop-1-en-1-yl)-5-oxo-4,5-dihydropyrazolo[1,5-a]pyrimidine-6-carboxamide]",0.8
5,"CCN(CC)C(=O)/C=C/c1cnn2c(O)c(C(=O)NC3CC3)c(=O)n(CC(C)C)c12 [compound 504, (E)-N-Cyclopropyl-3-(3-(diethylamino)-3-oxoprop-1-en-1-yl)-7-hydroxy-4-isobutyl-5-oxo-4,5-dihydropyrazolo[1,5-a]pyrimidine-6-carboxamide]",0.84
6,"CC(C)Cn1c(=O)c(C(=O)NC2CC2)c(O)n2ncc(/C=C/C(=O)N3CCN(CC(F)(F)C(F)(F)F)CC3)c12 [compound 505, (E)-N-Cyclopropyl-7-hydroxy-4-isobutyl-5-oxo-3-(3-oxo-3-(4-(2,2,3,3,3-pentafluoropropyl)piperazin-1-yl)prop-1-en-1-yl)-4,5-dihydropyrazolo[1,5-a]pyrimidine-6-carboxamide]",1.89
7,"CC(C)Cn1c(=O)c(C(=O)NC2CC2)c(O)n2ncc(/C=C/C(=O)N3CCN(CC(F)(F)F)CC3)c12 [compound 506, (E)-N-Cyclopropyl-7-hydroxy-4-isobutyl-5-oxo-3-(3-oxo-3-(4-(2,2,2-trifluoroethyl)piperazin-1-yl)prop-1-en-1-yl)-4,5-dihydropyrazolo[1,5-a]pyrimidine-6-carboxamide]",0.8
8,"CC(C)Cn1c(=O)c(C(=O)NC2CC2)c(O)n2ncc(/C=C/C(=O)NCC(C)(C)O)c12 [compound 507, (E)-N-Cyclopropyl-7-hydroxy-3-(3-((2-hydroxy-2-methylpropyl)amino)-3-oxoprop-1-en-1-yl)-4-isobutyl-5-oxo-4,5-dihydropyrazolo[1,5-a]pyrimidine-6-carboxamide]",1.13
9,"CC(C)Cn1c(=O)c(C(=O)NC2CC2)c(O)n2ncc(/C=C/C(=O)N3CCNCC3)c12 [compound 508, (E)-N-Cyclopropyl-7-hydroxy-4-isobutyl-5-oxo-3-(3-oxo-3-(piperazin-1-yl)prop-1-en-1-yl)-4,5-dihydropyrazolo[1,5-a]pyrimidine-6-carboxamide hydrochloride]",0.77
10,"CC(C)Cn1c(=O)c(C(=O)NC2CC2)c(O)n2ncc(/C=C/C(=O)N(C)CC(F)(F)F)c12 [compound 509, (E)-N-Cyclopropyl-7-hydroxy-4-isobutyl-3-(3-(methyl(2,2,2-trifluoroethyl)amino)-3-oxoprop-1-en-1-yl)-5-oxo-4,5-dihydropyrazolo[1,5-a]pyrimidine-6-carboxamide]",0.92
11,"CC(C)Cn1c(=O)c(C(=O)NC2CC2)c(O)n2ncc(/C=C/C(=O)N3CCC[C@H]3CO)c12 [compound 510, (S,E)-N-Cyclopropyl-7-hydroxy-3-(3-(2-(hydroxymethyl)pyrrolidin-1-yl)-3-oxoprop-1-en-1-yl)-4-isobutyl-5-oxo-4,5-dihydropyrazolo[1,5-a]pyrimidine-6-carboxamide]",0.85
12,"CC(C)Cn1c(=O)c(C(=O)NC2CC2)c(O)n2ncc(/C=C/C(=O)N3CC4C(C3)C4(F)F)c12 (stereo not shown) [compound 511, (E)-N-Cyclopropyl-3-(3-(6,6-difluoro-3-azabicyclo[3.1.0]hexan-3-yl)-3-oxoprop-1-en-1-yl)-7-hydroxy-4-isobutyl-5-oxo-4,5-dihydropyrazolo[1,5-a]pyrimidine-6-carboxamide]",1.07
13,"CC(C)Cn1c(=O)c(C(=O)NC2CC2)c(O)n2ncc(/C=C/C(=O)N3CC[C@H](C(N)=O)C3)c12 [compound 512, (S,E)-3-(3-(3-Carbamoylpyrrolidin-1-yl)-3-oxoprop-1-en-1-yl)-N-cyclopropyl-7-hydroxy-4-isobutyl-5-oxo-4,5-dihydropyrazolo[1,5-a]pyrimidine-6-carboxamide]",0.69
14,"CC(C)Cn1c(=O)c(C(=O)NC2CC2)c(O)n2ncc(/C=C/C(=O)N3CC[C@@H](C(N)=O)C3)c12 [compound 513, (R,E)-3-(3-(3-Carbamoylpyrrolidin-1-yl)-3-oxoprop-1-en-1-yl)-N-cyclopropyl-7-hydroxy-4-isobutyl-5-oxo-4,5-dihydropyrazolo[1,5-a]pyrimidine-6-carboxamide]",0.75
15,"CC(C)Cn1c(=O)c(C(=O)NC2CC2)c(O)n2ncc(/C=C/C(=O)N3CCS(=O)(=O)CC3)c12 [compound 514, (E)-N-Cyclopropyl-3-(3-(1,1-dioxidothiomorpholino)-3-oxoprop-1-en-1-yl)-7-hydroxy-4-isobutyl-5-oxo-4,5-dihydropyrazolo[1,5-a]pyrimidine-6-carboxamide]",0.58
16,"CC(C)Cn1c(=O)c(C(=O)NC2CC2)c(O)n2ncc(/C=C/C(=O)N(C3CC3)C3CC3)c12 [compound 515, (E)-N-Cyclopropyl-3-(3-(dicyclopropylamino)-3-oxoprop-1-en-1-yl)-7-hydroxy-4-isobutyl-5-oxo-4,5-dihydropyrazolo[1,5-a]pyrimidine-6-carboxamide]",0.84
17,"CC(C)Cn1c(=O)c(C(=O)NC2CC2)c(O)n2ncc(/C=C/C(=O)N3CCC(=O)C3)c12 [compound 516, (E)-N-Cyclopropyl-7-hydroxy-4-isobutyl-5-oxo-3-(3-oxo-3-(3-oxopyrrolidin-1-yl)prop-1-en-1-yl)-4,5-dihydropyrazolo[1,5-a]pyrimidine-6-carboxamide]",0.61
18,"COCCNC(=O)/C=C/c1cnn2c(O)c(C(=O)NC3CC3)c(=O)n(CC(C)C)c12 [compound 517, (E)-N-Cyclopropyl-7-hydroxy-4-isobutyl-3-(3-((2-methoxyethyl)amino)-3-oxoprop-1-en-1-yl)-5-oxo-4,5-dihydropyrazolo[1,5-a]pyrimidine-6-carboxamide]",0.57
19,"CC(C)Cn1c(=O)c(C(=O)NC2CC2)c(O)n2ncc(/C=C/C(=O)N(C)CC(C)(C)O)c12 [compound 518, (E)-N-Cyclopropyl-7-hydroxy-3-(3-((2-hydroxy-2-methylpropyl)(methyl)amino)-3-oxoprop-1-en-1-yl)-4-isobutyl-5-oxo-4,5-dihydropyrazolo[1,5-a]pyrimidine-6-carboxamide]",0.66
